The source of these data is PubChem BioAssay (NCI).

Several values for one entry are separate records, joined by “and”; a condition that tells them apart may be missing. Equal entries are not always repeated.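 Exposure lasted 48 hours, with cells grown in 96-well plates and compounds tested at five concentrations. At the GI50, growth is halved. TGI: concentration producing complete growth inhibition.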 Where only a bound is given, the exact number is not on record here.

Among the test systems are OVCAR-3 ovarian; COLO 205 colon; BT-549 breast; DU-145 prostate; NCI-H522 lung; PC-3 prostate; U251 CNS; MOLT-4 leukemia.
What all share (assay): NCI tumour cell line growth inhibition, 48 h

With `COc1cc(C(=O)n2nc(N)c3c(C)cc(C)nc32)cc(OC)c1OC`, the GI50 in the experiment on OVCAR-3 ovarian was above 88900 nM; with COLO 205 colon, above 40900 nM; in the experiment with BT-549 breast, above 100000 nM; in the experiment with DU-145 prostate, above 100000 nM; in the experiment with NCI-H522 lung, 10800 nM; with PC-3 prostate, above 100000 nM. Also, the GI50 was above 82900 nM with U251 CNS and 7260 nM in the experiment on MOLT-4 leukemia. In addition, the TGI in the experiment with OVCAR-3 ovarian, with COLO 205 colon, in the experiment with BT-549 breast, with DU-145 prostate, in the experiment with NCI-H522 lung and in the experiment with PC-3 prostate was above 100 µM in each case. In addition, the TGI in the experiment with U251 CNS and in the experiment with MOLT-4 leukemia was above 100 µM each time.

On to `COc1ccc2c(c1)nnc1c3cccnc3[nH]c21`, for which the GI50 is 964 nM and 1170 nM in the experiment on OVCAR-3 ovarian; 1130 nM and 735 nM in the experiment on COLO 205 colon; 3430 nM and 3260 nM with BT-549 breast; 1880 nM and 1040 nM with DU-145 prostate; 1090 nM in the experiment with NCI-H522 lung; 1420 nM in the experiment with PC-3 prostate. In addition, the GI50 in the experiment with U251 CNS is 929 nM and 987 nM; in the experiment with MOLT-4 leukemia, 29.9 nM. The TGI in the experiment with OVCAR-3 ovarian was 2.43 µM and 4.09 µM; with COLO 205 colon it was 4.87 µM and 2.31 µM; in the experiment on BT-549 breast, 15 µM and 20.5 µM; in the experiment on DU-145 prostate, 12.9 µM and 4.46 µM; in the experiment with NCI-H522 lung, 3 µM; in the experiment on PC-3 prostate, above 100 µM. In addition, the TGI was 17.3 µM and 10.7 µM in the experiment on U251 CNS; 0.219 µM in the experiment on MOLT-4 leukemia.

Regarding `COc1cnccc1Nc1nc(-c2nn(Cc3c(F)cc(OCCO)cc3F)c3ccccc23)ncc1OC`, the GI50 with OVCAR-3 ovarian is 3050 nM; with COLO 205 colon it was 17700 nM; in the experiment on BT-549 breast, 6510 nM; with DU-145 prostate, 3110 nM; in the experiment with NCI-H522 lung it was 1820 nM; with PC-3 prostate, 2550 nM. Further, the GI50 in the experiment with U251 CNS is 1590 nM; in the experiment on MOLT-4 leukemia, 1550 nM. The TGI in the experiment with OVCAR-3 ovarian was 8.51 µM; in the experiment on COLO 205 colon, above 100 µM; in the experiment on BT-549 breast it was 28.5 µM; in the experiment on DU-145 prostate it was 11.5 µM; with NCI-H522 lung, 8.55 µM; in the experiment on PC-3 prostate, above 100 µM. For the same compound, the TGI is 3.76 µM in the experiment with U251 CNS and above 100 µM in the experiment on MOLT-4 leukemia.

In the case of `COc1ccc(-c2[nH]ncc2Nc2cc(OC)c(OC)c(OC)c2)cc1`, the GI50 in the experiment on OVCAR-3 ovarian was 962 nM; in the experiment with COLO 205 colon it was 1610 nM; in the experiment with BT-549 breast it was 9990 nM; in the experiment on DU-145 prostate, 4000 nM; in the experiment on NCI-H522 lung, 1980 nM; in the experiment with PC-3 prostate it was 3310 nM. The GI50 with U251 CNS was 2210 nM; with MOLT-4 leukemia, 2120 nM. For the same compound, the TGI is 3.69 µM in the experiment on OVCAR-3 ovarian; 6.32 µM in the experiment on COLO 205 colon; above 89.6 µM in the experiment on BT-549 breast; 64.1 µM in the experiment with DU-145 prostate; 49.3 µM in the experiment with NCI-H522 lung; above 100 µM in the experiment with PC-3 prostate. Moreover, the TGI is above 100 µM in the experiment with U251 CNS and 63.7 µM in the experiment with MOLT-4 leukemia.

For `CSc1nc(SC)c2c(C)cn(COCCOC(=O)c3ccccc3)c2n1`, the TGI in the experiment with OVCAR-3 ovarian, in the experiment on COLO 205 colon, in the experiment on BT-549 breast, in the experiment with DU-145 prostate, in the experiment with NCI-H522 lung and in the experiment with PC-3 prostate was above 100 µM throughout. In addition, the TGI in the experiment with U251 CNS and with MOLT-4 leukemia was above 100 µM throughout.

As for `C(=N\Nc1ccc2ccccc2n1)/c1ccccn1`, the GI50 in the experiment with OVCAR-3 ovarian was 351 nM; in the experiment with COLO 205 colon it was 410 nM; with BT-549 breast it was 1100 nM; in the experiment with DU-145 prostate, 374 nM; in the experiment with NCI-H522 lung it was 319 nM; in the experiment on PC-3 prostate, 825 nM. For the same compound, the GI50 with U251 CNS is 413 nM; with MOLT-4 leukemia, 353 nM. For the same compound, the TGI with COLO 205 colon is 8.96 µM; in the experiment with BT-549 breast, above 38.9 µM; with DU-145 prostate, above 37.7 µM; in the experiment on NCI-H522 lung, 11.8 µM; in the experiment with PC-3 prostate, 73 µM; in the experiment on U251 CNS, above 55 µM. In the experiment on MOLT-4 leukemia, this compound showed a TGI above 21.8 µM.

For the compound `Fc1ccc(Nc2nc(Nc3ccc(-c4nc5ccccc5[nH]4)cc3)c3cn[nH]c3n2)cc1`, the GI50 is 1940 nM with OVCAR-3 ovarian; 1750 nM in the experiment on COLO 205 colon; 2360 nM in the experiment on BT-549 breast; 1870 nM with DU-145 prostate; 1610 nM with NCI-H522 lung; 2020 nM with PC-3 prostate. The GI50 in the experiment with U251 CNS was 2100 nM; with MOLT-4 leukemia it was 2550 nM. For the same compound, the TGI in the experiment with OVCAR-3 ovarian came out at 4.42 µM; in the experiment on COLO 205 colon it was 3.67 µM; with BT-549 breast, 6.4 µM; with DU-145 prostate, 3.75 µM; in the experiment on NCI-H522 lung, 4.02 µM; in the experiment on PC-3 prostate, 4.53 µM. Also, the TGI came out at 4.34 µM in the experiment with U251 CNS and 5.63 µM with MOLT-4 leukemia.

With `NS(=O)(=O)c1ccc(N=Nc2c[nH]c(=O)c(O)c2)cc1`, the TGI in the experiment with OVCAR-3 ovarian was 82.6 µM; in the experiment with COLO 205 colon, above 100 µM; in the experiment with BT-549 breast it was above 100 µM; in the experiment on DU-145 prostate it was above 100 µM; in the experiment on NCI-H522 lung, 28.6 µM; in the experiment on PC-3 prostate, above 100 µM. Moreover, the values for the TGI in the experiment with U251 CNS and in the experiment with MOLT-4 leukemia were 46.3 µM and above 100 µM, respectively.

Consider `CNc1cc(-c2cccc(OC(F)(F)F)c2)nc2ccc(N3CCCC3)cc12`, for which the GI50 in the experiment with OVCAR-3 ovarian was 1690 nM and 1920 nM and 1860 nM; with COLO 205 colon, 1840 nM and 1810 nM; in the experiment with BT-549 breast, 2140 nM and 1940 nM and 1790 nM; in the experiment on DU-145 prostate it was 1610 nM and 1840 nM and 1880 nM; with NCI-H522 lung, 1680 nM and 1650 nM and 1760 nM; in the experiment with PC-3 prostate it was 1460 nM and 1610 nM and 1500 nM. For the same compound, the GI50 in the experiment on U251 CNS was 1580 nM and 1690 nM and 1670 nM; in the experiment on MOLT-4 leukemia it was 2060 nM and 1810 nM and 1560 nM. For the same compound, the TGI is 3.14 µM and 3.6 µM and 3.39 µM with OVCAR-3 ovarian; 3.58 µM and 3.29 µM with COLO 205 colon; 6.17 µM and 3.65 µM and 3.33 µM with BT-549 breast; 3.12 µM and 3.5 µM and 3.4 µM in the experiment on DU-145 prostate; 3.33 µM and 3.25 µM and 3.43 µM in the experiment with NCI-H522 lung; 2.95 µM and 3.1 µM and 3.01 µM in the experiment with PC-3 prostate. Moreover, the TGI in the experiment on U251 CNS was 3.07 µM and 3.08 µM and 3.11 µM; in the experiment with MOLT-4 leukemia, 4.26 µM and 4.18 µM and 3.6 µM.

On to `Oc1[nH]c2ccccc2c1C=Nc1ccc(-n2cncn2)cc1`, for which the GI50 was above 20900 nM in the experiment on OVCAR-3 ovarian; above 25000 nM with COLO 205 colon; above 18900 nM with BT-549 breast; above 22500 nM in the experiment on DU-145 prostate; 10700 nM in the experiment on NCI-H522 lung; above 20100 nM in the experiment with PC-3 prostate. Besides, the GI50 in the experiment on U251 CNS is above 21600 nM; with MOLT-4 leukemia, 20400 nM. The TGI in the experiment with OVCAR-3 ovarian, with COLO 205 colon, with BT-549 breast, in the experiment on DU-145 prostate, with NCI-H522 lung and in the experiment with PC-3 prostate was above 25 µM throughout. The TGI in the experiment on U251 CNS and in the experiment with MOLT-4 leukemia was above 25 µM throughout.
